Laboratory results published in patent publication US11051515B2, “3-acyl-benzamides and their use as herbicides” (Bayer Aktiengesellschaft, priority 2017, dated 2021).

Legend:
ALOMY = assay: Pre-emergence action against ALOMY; type: in vivo, Alopecurus myosuroides; settings: dosage 320 g/ha; pre-emergence; scored visually after 3 weeks vs untreated controls; 100% = plants have died, 0% = like control plants
Outline: (§1)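 Seeds sown in sandy loam in wood-fiber pots and covered with soil. Greenhouse growth; visual damage scored after 3 weeks versus untreated controls (100% = dead, 0% = like control).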

AVEFA = assay: Pre-emergence action against AVEFA; type: in vivo, Avena fatua; settings: dosage 320 g/ha, scored visually after 3 weeks vs untreated controls
Outline: as §1

CYPES = assay: Pre-emergence action against CYPES; type: in vivo, Cyperus esculentus; settings: pre-emergence, dosage 320 g/ha, scored visually after 3 weeks vs untreated controls
Outline: as §1

ECHCG [1] = assay: Pre-emergence action against ECHCG; type: in vivo, Echinochloa crus-galli; settings: pre-emergence, dosage 320 g/ha, scored visually after 3 weeks vs untreated controls
Outline: as §1

SETVI [2] = assay: Pre-emergence action against SETVI; type: in vivo, Setaria viridis; settings: pre-emergence, dosage 320 g/ha, scored visually after 3 weeks vs untreated controls
Outline: as §1

ABUTH [3] = assay: Pre-emergence action against ABUTH; type: in vivo, Abutilon theophrasti; settings: pre-emergence, dosage 320 g/ha, scored visually after 3 weeks vs untreated controls
Outline: as §1

AMARE [4] = assay: Pre-emergence action against AMARE; type: in vivo, Amaranthus retroflexus; settings: pre-emergence, dosage 320 g/ha, scored visually after 3 weeks vs untreated controls
Outline: as §1

MATIN [5] = assay: Pre-emergence action against MATIN; type: in vivo, Matricaria inodora; settings: Dosage 320 g/ha, pre-emergence
Outline: as §1

PHBPU [6] = assay: Pre-emergence action against PHBPU; type: in vivo, Pharbitis purpurea; settings: Dosage 320 g/ha, pre-emergence
Outline: as §1

POLCO [7] = assay: Pre-emergence action against POLCO; type: in vivo, Polygonum convolvulus; settings: Dosage 320 g/ha, pre-emergence
Outline: as §1

STEME [8] = assay: Pre-emergence action against STEME; type: in vivo, Stellaria media; settings: Dosage 320 g/ha, pre-emergence
Outline: as §1

VIOTR [9] = assay: Pre-emergence action against VIOTR; type: in vivo, Viola tricolor; settings: Dosage 320 g/ha, pre-emergence
Outline: as §1

VERPE [10] = assay: Pre-emergence action against VERPE; type: in vivo, Veronica persica; settings: Dosage 320 g/ha, pre-emergence
Outline: as §1

HORMU = assay: Pre-emergence action against HORMU; type: in vivo, Hordeum murinum; settings: Dosage 320 g/ha
Excerpt: (§2) Seeds of monocotyledonous and dicotyledonous weed plants and crop plants are laid out in sandy loam soil in wood-fiber pots and covered with soil. The compounds of the invention, formulated in the form of wettable powders (WP) or as emulsion concentrates (EC), are then applied to the surface of the covering soil in the form of an aqueous suspension or emulsion at a water application rate equating to […], with addition of 0.2% wetting agent. After the treatment, the pots are placed in a greenhouse and kept under good growth conditions for the trial plants. The damage to the test plants is scored visually after a test period of 3 weeks by comparison with untreated controls (herbicidal activity in percent (%): 100% activity=the plants have died, 0% activity=like control plants).

ECHCG [11] = assay: Post-emergence action against ECHCG; type: in vivo, Echinochloa crus-galli; settings: post-emergence, dosage 80 g/ha, visual assessment about 3 weeks after treatment vs untreated controls
Outline: (§3)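 Weeds grown in sandy loam in greenhouse, treated at one-leaf stage (2–3 weeks after sowing) with WP or EC formulations sprayed as aqueous suspension/emulsion at 600 to […] water with 0.2% wetting agent. Visual rating after about 3 weeks versus untreated controls, as % herbicidal action (100% = plants dead, 0% = like control).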

SETVI [12] = assay: Post-emergence action against SETVI; type: in vivo, Setaria viridis; settings: post-emergence, dosage 80 g/ha, visual assessment about 3 weeks after treatment vs untreated controls
Outline: as §3

ABUTH [13] = assay: Post-emergence action against ABUTH; type: in vivo, Abutilon theophrasti; settings: post-emergence, dosage 80 g/ha, visual assessment about 3 weeks after treatment vs untreated controls
Outline: as §3

AMARE [14] = assay: Post-emergence action against AMARE; type: in vivo, Amaranthus retroflexus; settings: post-emergence, dosage 80 g/ha, visual assessment about 3 weeks after treatment vs untreated controls
Outline: as §3

MATIN [15] = assay: Post-emergence action against MATIN; type: in vivo, Matricaria inodora; settings: post-emergence, dosage 80 g/ha, visual assessment about 3 weeks after treatment vs untreated controls
Outline: as §3

PHBPU [16] = assay: Post-emergence action against PHBPU; type: in vivo, Pharbitis purpurea; settings: post-emergence, dosage 80 g/ha
Outline: as §3

POLCO [17] = assay: Post-emergence action against POLCO; type: in vivo, Polygonum convolvulus; settings: post-emergence, dosage 80 g/ha
Outline: as §3

STEME [18] = assay: Post-emergence action against STEME; type: in vivo, Stellaria media; settings: post-emergence, dosage 80 g/ha
Outline: as §3

VIOTR [19] = assay: Post-emergence action against VIOTR; type: in vivo, Viola tricolor; settings: post-emergence, dosage 80 g/ha
Outline: as §3

VERPE [20] = assay: Post-emergence action against VERPE; type: in vivo, Veronica persica; settings: dosage 80 g/ha
Outline: as §3

LOLRI = assay: Pre-emergence action against LOLRI; type: in vivo, Lolium rigidum; settings: dosage 320 g/ha, scored visually after 3 weeks vs untreated controls
Excerpt: as §2

## CCn1nnnc1NC(=O)c1ccc(C(F)F)c(C(C)=O)c1SC [2-65]
ALOMY
  Pre-emergence action against ALOMY (herbicidal activity in percent): 100%
AVEFA
  Pre-emergence action against AVEFA (herbicidal activity): 100%
CYPES
  Pre-emergence action against CYPES (herbicidal activity): 90%
ECHCG [1]
  Pre-emergence action against ECHCG (herbicidal activity): 100%
SETVI [2]
  SETVI (Table B8, pre-emergence herbicidal activity): 100%
ABUTH [3]
  Pre-emergence action against ABUTH (herbicidal activity): 100%
AMARE [4]
  Pre-emergence action against AMARE (herbicidal activity): 100%
MATIN [5]
  Pre-emergence action against MATIN: 90%
PHBPU [6]
  Pre-emergence action against PHBPU: 100%
POLCO [7]
  Pre-emergence action against POLCO: 90%
STEME [8]
  Pre-emergence action against STEME: 100%
VIOTR [9]
  Pre-emergence action against VIOTR: 100%
VERPE [10]
  Pre-emergence action against VERPE: 100%
HORMU
  Pre-emergence action against HORMU: 80%
ECHCG [11]
  Post-emergence action against ECHCG (herbicidal action in percent): 80%
SETVI [12]
  Post-emergence action against SETVI (herbicidal action in percent): 100%
ABUTH [13]
  Post-emergence action against ABUTH (herbicidal action in percent): 100%
AMARE [14]
  Post-emergence action against AMARE (herbicidal action in percent): 100%
MATIN [15]
  Post-emergence action against MATIN (herbicidal action in percent): 100%
PHBPU [16]
  Post-emergence action against PHBPU: 90
POLCO [17]
  Post-emergence action against POLCO: 100
STEME [18]
  Post-emergence action against STEME: 100
VIOTR [19]
  Post-emergence action against VIOTR: 100
VERPE [20]
  Post-emergence action against VERPE: 80

## Cn1nnnc1NC(=O)c1ccc(C(F)(F)F)c(C(=O)C(C)(C)C)c1Cl [1-143]
CYPES; Cyperus esculentus, 504 h, read-out: Pre-emergence action against CYPES (herbicidal activity)
  pest or weed control at 320 g/ha: 90%
ECHCG [1]; Echinochloa crus-galli, 504 h, read-out: Pre-emergence action against ECHCG (herbicidal activity)
  pest or weed control at 320 g/ha: 100%
LOLRI; Lolium rigidum, 504 h, read-out: Pre-emergence action against LOLRI (herbicidal activity)
  pest or weed control at 320 g/ha: 80%
SETVI [2]; Setaria viridis, 504 h, read-out: SETVI (Table B8, pre-emergence herbicidal activity)
  pest or weed control at 320 g/ha: 90%
ABUTH [3]; Abutilon theophrasti, 504 h, read-out: Pre-emergence action against ABUTH (herbicidal activity)
  pest or weed control at 320 g/ha: 100%
AMARE [4]; Amaranthus retroflexus, 504 h, read-out: Pre-emergence action against AMARE (herbicidal activity)
  pest or weed control at 320 g/ha: 100%
MATIN [5]; Tripleurospermum inodorum, 504 h
  pest or weed control at 320 g/ha: 100%
STEME [8]; Stellaria media, 504 h
  pest or weed control at 320 g/ha: 100%
VIOTR [9]; Viola tricolor, 504 h
  pest or weed control at 320 g/ha: 100%
VERPE [10]; Veronica persica, 504 h
  pest or weed control at 320 g/ha: 100%
STEME [18]; Stellaria media, 504 h
  pest or weed control at 80 g/ha: 100%

## CCn1nnnc1NC(=O)c1ccc(C(F)(F)F)c(C(=O)COC)c1Cl [2-144]
ALOMY
  Pre-emergence action against ALOMY (herbicidal activity in percent): 100%
AVEFA
  Pre-emergence action against AVEFA (herbicidal activity): 100%
CYPES
  Pre-emergence action against CYPES (herbicidal activity): 100%
ECHCG [1]
  Pre-emergence action against ECHCG (herbicidal activity): 100%
LOLRI
  Pre-emergence action against LOLRI (herbicidal activity): 100%
SETVI [2]
  SETVI (Table B8, pre-emergence herbicidal activity): 100%
ABUTH [3]
  Pre-emergence action against ABUTH (herbicidal activity): 100%
AMARE [4]
  Pre-emergence action against AMARE (herbicidal activity): 100%
MATIN [5]
  Pre-emergence action against MATIN: 100%
PHBPU [6]
  Pre-emergence action against PHBPU: 100%
STEME [8]
  Pre-emergence action against STEME: 100%
VIOTR [9]
  Pre-emergence action against VIOTR: 100%
VERPE [10]
  Pre-emergence action against VERPE: 100%
ECHCG [11]
  Post-emergence action against ECHCG (herbicidal action in percent): 100%
SETVI [12]
  Post-emergence action against SETVI (herbicidal action in percent): 100%
ABUTH [13]
  Post-emergence action against ABUTH (herbicidal action in percent): 90%
AMARE [14]
  Post-emergence action against AMARE (herbicidal action in percent): 100%
MATIN [15]
  Post-emergence action against MATIN (herbicidal action in percent): 90%
PHBPU [16]
  Post-emergence action against PHBPU: 100
STEME [18]
  Post-emergence action against STEME: 100
VIOTR [19]
  Post-emergence action against VIOTR: 100
VERPE [20]
  Post-emergence action against VERPE: 90
